Laboratory results published in patent US20240025863A1, “SOS1 PROTEIN DEGRADERS, PHARMACEUTICAL COMPOSITIONS THEREOF, AND THEIR THERAPEUTIC APPLICATIONS” (BioTheryX, Inc., priority 2020, published 2024).

Tests used:
Type in all cases: cell-based
SW480 cells (G12V) = experiment: Cell viability assay (CellTiter-Glo), SW480 cells; conditions: Homo sapiens, 72 h; SW480 cells, 3 days incubation, CellTiter-Glo luminescence; read-out: Inhibition of Cancerous Cells IC50 SW480 (G12V)
Method: (§1) H358, H23, SW48, and AsPC-1 cells were cultured in RPMI 1640 media supplemented with 10% fetal bovine serum, streptomycin, and penicillin. Lovo and SW480 cells were cultured in DMEM media supplemented with 10% fetal bovine serum, streptomycin, and penicillin. The cell lines were plated in their respective medium supplemented with 2.5% fetal bovine serum, streptomycin, and penicillin. All cell lines were plated in white walled 96-well plates at 2,000 cells/well or 384-well plates at 500 cells/well, except Lovo, which were plated at 4,000 or 1,000 cells/well, respectively. The cells were incubated in DMSO (control) or a compound for 3 days at 37° C. under 5% CO2. A CELLTITER-GLO® reagent (100 μL) was then added to each well. After a 10 min incubation with shaking, luminescence was measured using an ENVISION® multimode plate reader.

H358 cells (G12C) = experiment: Cell viability assay (CellTiter-Glo), H358 cells; conditions: Homo sapiens, NCI-H358, 72 h; H358 cells, 3 days incubation, CellTiter-Glo luminescence; read-out: Inhibition of Cancerous Cells IC50 H358 (G12C)
Method: as §1

SW48 cells (wt) = experiment: Cell viability assay (CellTiter-Glo), SW48 cells; conditions: Homo sapiens, 72 h; SW48 cells, 3 days incubation, CellTiter-Glo luminescence; read-out: Inhibition of Cancerous Cells IC50 SW48 (wt)
Method: as §1

Lovo cells (G13D) = experiment: Cell viability assay (CellTiter-Glo), Lovo cells; conditions: Homo sapiens, 72 h; Lovo cells, 3 days incubation, CellTiter-Glo luminescence; read-out: Inhibition of Cancerous Cells IC50 Lovo (G13D)
Method: as §1

SMILES	IC50 (SW480 cells (G12V))	IC50 (H358 cells (G12C))	IC50 (SW48 cells (wt))	IC50 (Lovo cells (G13D))
COc1cc2c(N[C@H](C)c3cccc(Br)c3)nc(C)nc2cc1OCCCCCCCCC(=O)NCc1cccc2c1CN(C1CCC(=O)NC1=O)C2=O (stereo partly drawn) [Compound A6, 9-((4-(((R)-1-(3-bromophenyl)ethyl)amino)-6-methoxy-2-methylquinazolin-7-yl)oxy)-N-((2-(2,6-dioxopiperidin-3-yl)-1-oxoisoindolin-4-yl)methyl)nonanamide]	8300 nM	9900 nM	> 10000 nM	4900 nM
COc1cc2c(N[C@H](C)c3cccc(Br)c3)nc(C)nc2cc1OCCCCCCCC(=O)NCc1cccc2c1CN(C1CCC(=O)NC1=O)C2=O (stereo partly drawn) [Compound A7, 8-((4-(((R)-1-(3-Bromophenyl)ethyl)amino)-6-methoxy-2-methylquinazolin-7-yl)oxy)-N-((2-(2,6-dioxopiperidin-3-yl)-1-oxoisoindolin-4-yl)methyl)octanamide]	6400 nM	5400 nM	5000 nM	3500 nM
COc1cc2c(N[C@H](C)c3cccc(Br)c3)nc(C)nc2cc1OCCCCCCCC(=O)NCc1ccc2c(c1)CN(C1CCC(=O)NC1=O)C2=O (stereo partly drawn) [Compound A8, 8-((4-(((R)-1-(3-Bromophenyl)ethyl)amino)-6-methoxy-2-methylquinazolin-7-yl)oxy)-N-((2-(2,6-dioxopiperidin-3-yl)-1-oxoisoindolin-5-yl)methyl)octanamide]	2100 nM	1600 nM	400 nM	970 nM
COc1cc2c(N[C@H](C)c3cccc(Br)c3)nc(C)nc2cc1OCCCCCCCCC(=O)NCc1ccc2c(c1)CN(C1CCC(=O)NC1=O)C2=O (stereo partly drawn) [Compound A9, 9-((4-(((R)-1-(3-Bromophenyl)ethyl)amino)-6-methoxy-2-methylquinazolin-7-yl)oxy)-N-((2-(2,6-dioxopiperidin-3-yl)-1-oxoisoindolin-5-yl)methyl)nonanamide]	1200 nM	820 nM	22 nM	47 nM
COc1cc2c(N[C@H](C)c3cccc(Br)c3)nc(C)nc2cc1OCCCCCN1CCC(c2cc(F)cc3c2CN(C2CCC(=O)NC2=O)C3=O)CC1 (stereo partly drawn) [Compound A11, 3-(4-(1-(5-((4-(((R)-1-(3-Bromophenyl)ethyl)amino)-6-methoxy-2-methyl-quinazolin-7-yl)oxy)pentyl)piperidin-4-yl)-6-fluoro-1-oxoisoindolin-2-yl)piperidine-2,6-dione]	560 nM	1600 nM	510 nM	410 nM
COc1cc2c(N[C@H](C)c3cccc(Br)c3)nc(C)nc2cc1OCCCCN1CCN(C(=O)COc2cc(F)cc3c2CN(C2CCC(=O)NC2=O)C3=O)CC1 (stereo partly drawn) [Compound A13, 3-(4-(2-(4-(4-((4-(((R)-1-(3-Bromophenyl)ethyl)amino)-6-methoxy-2-methyl-quinazolin-7-yl)oxy)butyl)piperazin-1-yl)-2-oxoethoxy)-6-fluoro-1-oxoisoindolin-2-yl)-piperidine-2,6-dione]	6600 nM	7400 nM	5900 nM	9800 nM
COc1cc2c(N[C@H](C)c3cccc(Br)c3)nc(C)nc2cc1OCCCCCN1CCN(C(=O)COc2cc(F)cc3c2CN(C2CCC(=O)NC2=O)C3=O)CC1 (stereo partly drawn) [Compound A14, 3-(4-(2-(4-(5-((4-(((R)-1-(3-Bromophenyl)ethyl)amino)-6-methoxy-2-methyl-quinazolin-7-yl)oxy)pentyl)piperazin-1-yl)-2-oxoethoxy)-6-fluoro-1-oxoisoindolin-2-yl)-piperidine-2,6-dione]	5000 nM	4500 nM	3100 nM	2800 nM
CNCc1ccccc1-c1csc([C@@H](C)Nc2nc(C)nc3cc(OCCCCCCCN4CCC(c5cc(F)cc6c5CN(C5CCC(=O)NC5=O)C6=O)CC4)c(OC)cc23)c1 (stereo partly drawn) [Compound A15, 3-(6-Fluoro-4-(1-(7-((6-methoxy-2-methyl-4-(((R)-1-(4-(2-((methylamino)-methyl)phenyl)thiophen-2-yl)ethyl)amino)quinazolin-7-yl)oxy)heptyl)piperidin-4-yl)-1-oxoisoindolin-2-yl)piperidine-2,6-dione]	370 nM	550 nM	410 nM	260 nM
CNCc1ccccc1-c1csc([C@H](C)Nc2nc(C)nc3cc(OCCCCCCCN4CCC(c5cc(F)cc6c5CN(C5CCC(=O)NC5=O)C6=O)CC4)c(OC)cc23)c1 (stereo partly drawn) [Compound A16, 3-(6-Fluoro-4-(1-(7-((6-methoxy-2-methyl-4-(((S)-1-(4-(2-((methylamino)-methyl)phenyl)thiophen-2-yl)ethyl)amino)quinazolin-7-yl)oxy)heptyl)piperidin-4-yl)-1-oxoisoindolin-2-yl)piperidine-2,6-dione]	350 nM	430 nM	340 nM	230 nM

Results, then the compound that gave them:

IC50 (SW480 cells (G12V))	IC50 (H358 cells (G12C))	IC50 (SW48 cells (wt))	IC50 (Lovo cells (G13D))	SMILES
950 nM	1400 nM	1100 nM	760 nM	COc1cc2c(N[C@H](C)c3cccc(Br)c3)nc(C)nc2cc1C1CCN(CCCCCN2CCC(c3cc(F)cc4c3CN(C3CCC(=O)NC3=O)C4=O)CC2)CC1 (stereo partly drawn) [Compound A17, 3-(4-(1-(5-(4-(4-(((R)-1-(3-Bromophenyl)ethyl)amino)-6-methoxy-2-methyl-quinazolin-7-yl)piperidin-1-yl)pentyl)piperidin-4-yl)-6-fluoro-1-oxoisoindolin-2-yl)piperidine-2,6-dione]
1200 nM	830 nM	810 nM	950 nM	COc1cc2c(N[C@H](C)c3cccc(Br)c3)nc(C)nc2c(CCCCCCCN2CCC(c3cc(F)cc4c3CN(C3CCC(=O)NC3=O)C4=O)CC2)c1OC (stereo partly drawn) [Compound A20, 3-(4-(1-(7-(4-(((R)-1-(3-Bromophenyl)ethyl)amino)-6,7-dimethoxy-2-methyl-quinazolin-8-yl)heptyl)piperidin-4-yl)-6-fluoro-1-oxoisoindolin-2-yl)piperidine-2,6-dione]
430 nM	1100 nM	430 nM	380 nM	COc1cc2c(N[C@H](C)c3cccc(Br)c3)nc(C)nc2cc1OCCCCCN1CCC(c2cc3c(cc2F)C(=O)N(C2CCC(=O)NC2=O)C3)CC1 (stereo partly drawn) [Compound A21, 3-(5-(1-(5-((4-(((R)-1-(3-Bromophenyl)ethyl)amino)-6-methoxy-2-methyl-quinazolin-7-yl)oxy)pentyl)piperidin-4-yl)-6-fluoro-1-oxoisoindolin-2-yl)piperidine-2,6-dione]
290 nM	760 nM	300 nM	330 nM	COc1cc2c(N[C@H](C)c3cccc(Br)c3)nc(C)nc2cc1OCCCCCCCCCN1CCC(c2cc3c(cc2F)C(=O)N(C2CCC(=O)NC2=O)C3)CC1 (stereo partly drawn) [Compound A23, 3-(5-(1-(9-((4-(((R)-1-(3-Bromophenyl)ethyl)amino)-6-methoxy-2-methyl-quinazolin-7-yl)oxy)nonyl)piperidin-4-yl)-6-fluoro-1-oxoisoindolin-2-yl)piperidine-2,6-dione]
550 nM	1200 nM	1300 nM	400 nM	COc1cc2c(N[C@H](C)c3cccc(Br)c3)nc(C)nc2cc1OCCCCCCCCCCCN1CCC(c2cc3c(cc2F)C(=O)N(C2CCC(=O)NC2=O)C3)CC1 (stereo partly drawn) [Compound A24, 3-(5-(1-(11-((4-(((R)-1-(3-Bromophenyl)ethyl)amino)-6-methoxy-2-methyl-quinazolin-7-yl)oxy)undecyl)piperidin-4-yl)-6-fluoro-1-oxoisoindolin-2-yl)piperidine-2,6-dione]
370 nM	510 nM	420 nM	290 nM	CNCc1ccccc1-c1csc([C@@H](C)Nc2nc(C)nc3cc(OCCCCCCCN4CCC(c5cc6c(cc5F)C(=O)N(C5CCC(=O)NC5=O)C6)CC4)c(OC)cc23)c1 (stereo partly drawn) [Compound A25, 3-(6-Fluoro-5-(1-(7-((6-methoxy-2-methyl-4-(((R)-1-(4-(2-((methylamino)-methyl)phenyl)thiophen-2-yl)ethyl)amino)quinazolin-7-yl)oxy)heptyl)piperidin-4-yl)-1-oxoisoindolin-2-yl)piperidine-2,6-dione]
400 nM	570 nM	420 nM	360 nM	CNCc1ccccc1-c1csc([C@H](C)Nc2nc(C)nc3cc(OCCCCCCCN4CCC(c5cc6c(cc5F)C(=O)N(C5CCC(=O)NC5=O)C6)CC4)c(OC)cc23)c1 (stereo partly drawn) [Compound A26, 3-(6-Fluoro-5-(1-(7-((6-methoxy-2-methyl-4-(((S)-1-(4-(2-((methylamino)-methyl)phenyl)thiophen-2-yl)ethyl)amino)quinazolin-7-yl)oxy)heptyl)piperidin-4-yl)-1-oxoisoindolin-2-yl)piperidine-2,6-dione]
590 nM	1000 nM	940 nM	580 nM	COc1cc2c(N[C@H](C)c3cccc(C(F)(F)CO)c3)nc(C)nc2cc1OCCCCCCCN1CCC(c2cc3c(cc2F)C(=O)N(C2CCC(=O)NC2=O)C3)CC1 (stereo partly drawn) [Compound A27, 3-(5-(1-(7-((4-(((R)-1-(3-(1,1-Difluoro-2-hydroxyethyl)phenyl)ethyl)amino)-6-methoxy-2-methylquinazolin-7-yl)oxy)heptyl)piperidin-4-yl)-6-fluoro-1-oxoisoindolin-2-yl)-piperidine-2,6-dione]
